From patent publication US9567329B2, “High penetration prodrug compositions of 1H-imidazo[4,5-c]quinolin-4-amines and 1H-imidazo[4,5-c]quinolin-4-amine-related compounds and uses thereof” (Techfields Pharma Co., Ltd, priority 2007, dated 2017)

Key:
[1] = In vitro penetration rate across human skin in modified Franz cells; format: in vitro ADME; conditions: 3% solution in ethanol/pH 7.4 phosphate buffer (0.2 M) 70/30
Method: Penetration rates of HPPs and their parent drugs through human skin were measured in vitro by modified Franz cells. A Franz cell had two chambers, the top sample chamber and the bottom receiving chamber. The human skin tissue (360-400 μm thick) that separated the top and the receiving chambers was isolated from the anterior or posterior thigh areas.
A compound tested (0.5 mL, 3% in a mixture of ethanol and phosphate buffer (0.2M, pH 7.4) (v/v, 70/30)) was added to the sample chamber of a Franz cell. The receiving chamber contains 2 ml of 2% bovine serum albumin in saline which was stirred at 600 rpm. The amount of the tested compound penetrating the skin was determined by high-performance liquid chromatography (HPLC) method.
The lowest detectable apparent flux values in this method was 1 μg/cm^2/h.

[2] = Irritative effect or discomfort on skin of nude mice after topical application; format: in vivo; conditions: 0.1 ml of 3% in pH 7.4 phosphate buffer, back of nude mice, twice per day, 1 week
Method: Irritative effect or discomfort in the skin of mice of HPPs of 1H-imidazo[4,5-c]quinolin-4-amines or 1H-imidazo[4,5-c]quinolin-4-amine-related compounds was evaluated during a period of 1 week after the topical application of 0.1 ml of 3% of the respective test drug in pH 7.4 phosphate buffer (0.2 M) to the back of nude mice twice per day.

[3] = Conversion of HPPs to parent drugs in human plasma (half life); format: in vitro ADME; conditions: 37° C.
Method: HPPs of 1H-imidazo[4,5-c]quinolin-4-amines or 1H-imidazo[4,5-c]quinolin-4-amine-related compounds converted to the parent 1H-imidazo[4,5-c]quinolin-4-amines or 1H-imidazo[4,5-c]quinolin-4-amine-related compounds quickly in good yield in human plasma.
A HPP of 1H-imidazo[4,5-c]quinolin-4-amines or 1H-imidazo[4,5-c]quinolin-4-amine-related compound (0.05 mg) was dissolved in 0.1 ml of 0.2M pH 7.4 phosphate buffer. 1 ml of human plasma, preheated to 37° C., was added into the mixture. The mixture was kept in a water bath at 37° C., and at every 10 min intervals 0.2 ml of samples were withdrawn and added to 0.4 ml of methanol to precipitate the plasma protein. The samples were centrifuged for 5 min and analyzed by HPLC.

[4] = tested on: Human breast cancer cells (BCAP-37); assay: Antitumor activity, breast cancer xenograft, topical treatment from day 1; conditions: 50 μl of 3% topically once per day from day 1; after 28 days
Source text: Human breast cancer cells (BCAP-37, 4-5 mm^3 of tumor tissue was used in each mouse) were subcutaneous xenografted into nude mice (BALB).

[5] = tested on: Human colon cancer cells (LS174J); assay: Antitumor activity, colon cancer xenograft, topical treatment from day 1; conditions: 50 μl of 3% topically twice per day from day 1; after 28 days
Source text: Human colon cancer cells (LS174J, 4-5 mm^3 of tumor tissue was used in each mouse) were subcutaneously xenografted into nude mice (BALB).

[6] = tested on: Human breast cancer cells (BCAP-37)
Source text: Human breast cancer cells (BCAP-37, 3-4 mm^3 of tumor tissue was used in each mouse) were subcutaneously xenografted into nude mice (BALB).

[7] = tested on: interferon production; assay: Interferon inducing activity in guinea pigs (serum protection of fibroblasts from mengovirus); format: in vivo; conditions: serum 18 hours after treatment
Method: Without being bound by any mechanism, the ability to induce interferon production of the pro-drugs of the invention was evaluated in guinea pigs (n=10). Untreated guinea pigs provided controls.
Each test drug was administered to real back skin of a guinea pig at a specific dose of about 0.5-4.5 mg/kg respectively.
Each treated and control guinea pig was bled 18 hours after drug treatment and its serum was assayed for interferon activity. The serum was diluted and incubated with guinea pig fibroblast cells at 37° C. overnight in 96 well microtiter plates. The incubated cells were then challenged with an inoculum of mengovirus that was sufficient to kill untreated cells in two days. Two days after such challenge, the cells were examined both microscopically and after staining with crystal violet to determine whether the cells remained intact.
Table 4 contains the results of the study with activity/ml indicating the highest dilute on of serum that protected cells from virus challenge. Untreated guinea pigs provided controls.

[8] = tested on: herpes simplex virus Type II; assay: Anti-Herpes activity, treated for 3 days before HSV infection; format: in vivo; conditions: guinea pigs
Method: (§1) The evaluation of anti-Herpes activity of these prodrugs was carried out using the method described by Kern, et al. [Antimicrob. Agents Chemother. 14, 817, (1978)]. In each experiment, female guinea pigs (n=10) were anesthetized. […] Virus replication was monitored by determining the amount of virus recovered with vaginal swabs taken on day 7 after infection. […] The percent Lesion Inhibition was calculated as follows: 100-[(Sum of maximum lesion scores of treated group divided by the Sum of the scores of infected control)×100] (Table 5).

[9] = tested on: herpes simplex virus Type I; assay: as above; format: in vivo; conditions: guinea pigs
Method: as §1

[10] = tested on: herpes simplex virus Type II; assay: Anti-Herpes activity, treated for 5 days, first treatment just after HSV infection; format: in vivo; conditions: guinea pigs
Method: (§2) The evaluation of anti-Herpes activity of these prodrugs was carried out using the method described by Kern, et al. [Antimicrob. Agents Chemother. 14, 817, (1978)].
(§3) In the second experiment, female guinea pigs (n=10) were anesthetized. Herpes simplex virus (Type I or Type II, about 10^5 plaque forming units were used) was applied intravaginally to the guinea pigs using a cotton swab. […] Virus replication was monitored by determining the amount of virus recovered with vaginal swabs taken on day 7 after infection. External lesions were scored daily for ten days using the following scale: 0, no lesion; 1, redness and swelling; 2, a few small vesicles; 3, several large vesicles; 4, large ulcers and necrosis; and 5, paralysis. The percent Lesion Inhibition was calculated as follows: 100−[(Sum of maximum lesion scores of treated group divided by the Sum of the scores of infected control)×100] (Table 6).

[11] = tested on: herpes simplex virus Type I; assay: as above; format: in vivo; conditions: guinea pigs
Method: as §2, §3

[12] = tested on: herpes simplex virus Type II; assay: Anti-Herpes activity, treated for 5 days, first treatment 5 days after HSV infection; format: in vivo; conditions: guinea pigs
Method: as §2
(§4) In the third experiment, female guinea pigs (n=10) were anesthetized. The guinea pigs were then infected with herpes simplex virus (type I or Type II, about 10^5 plaque forming units were used) intravaginally using a cotton swab. […] External lesions were scored daily for ten days using the following scale: 0, no lesion; 1, redness and swelling; 2, a few small vesicles; 3, several large vesicles; 4, large ulcers and necrosis; and 5, paralysis. The percent Lesion Inhibition was calculated as follows: 100−[(Sum of maximum lesion scores of treated group divided by the Sum of the scores of infected control)×100] (Table 7).

[13] = tested on: herpes simplex virus Type I; assay: as above; format: in vivo; conditions: guinea pigs
Method: as §2, §4

[14] = tested on: interferon production; assay: Interferon inducing activity in guinea pigs (serum protection of fibroblasts from mengovirus); format: in vivo; conditions: serum 18 hours after treatment; remark: listed apart in the source
[15] = at day 42, treatment from day 21 (tumors 13±2 mm×12±3 mm), 50 μl of 3% topically once per day
[16] = 0.5 mg/kg once per day for 3 days before HSV infection
[17] = 1.5 mg/kg once per day for 3 days before HSV infection
[18] = 4.5 mg/kg once per day for 3 days before HSV infection
[19] = 0.5 mg/kg once per day for 5 days
[20] = 1.5 mg/kg once per day for 5 days
[21] = 4.5 mg/kg once per day for 5 days

Compound: CCCCn1cnc2c(NC(=O)CNC)nc3ccccc3c21.Cl [sarcosine 1-butyl-1H-imidazo[4,5-c]quinolin-4-amide hydrochloride]
- In vitro Penetration Rate of HPPs (apparent flux) [1]: 0.13 mg/cm^2/h
- signs of irritative effect or discomfort in the skin [2]: None of any signs of irritative effect or discomfort was observed
- Half life of HPPs in plasma [3]: 25 ± 2 min

Compound: CNCC(=O)Nc1nc2ccccc2c2c1ncn2CC(C)C.Cl [sarcosine 1-isobutyl-1H-imidazo[4,5-c]quinolin-4-amide hydrochloride]
- In vitro Penetration Rate of HPPs (apparent flux) [1]: 0.15 mg/cm^2/h
- signs of irritative effect or discomfort in the skin [2]: None of any signs of irritative effect or discomfort was observed
- Half life of HPPs in plasma [3]: 27 ± 1 min
- Tumor size, Human breast cancer, first dimension [4]: None
- tumor incidence, human breast cancer [4]: no tumor was seen
- Tumor size, Human colon cancer, first dimension [5]: None
- tumor incidence, human colon cancer [5]: no tumor was seen
- tumor size, first dimension [6, 15]: 11±2 mm
- tumor size, second dimension [6, 15]: 10±2 mm
- death of mice ([6]; up to day 70, 50 μl of 3% topically once per day from day 21): none of mice died at day 70
- Interferon level of the HPP, transdermal ([7]; 0.5 mg/kg once): 8,676 activity/ml
- Interferon level of the HPP, transdermal ([7]; 1.5 mg/kg once): 16,784 activity/ml
- Interferon level of the HPP, transdermal ([7]; 4.5 mg/kg once): 57,235 activity/ml
- % Lesion inhibition of the HPP, intravaginal, Herpes type II [8, 16]: 75%
- % Lesion inhibition of the HPP, transdermal, Herpes type II [8, 16]: 51%
- % Lesion inhibition of the HPP, intravaginal, Herpes type II [8, 17]: 90%
- % Lesion inhibition of the HPP, transdermal, Herpes type II [8, 17]: 73%
- % Lesion inhibition of the HPP, intravaginal, Herpes type II [8, 18]: 96%
- % Lesion inhibition of the HPP, transdermal, Herpes type II [8, 18]: 90%
- % Lesion inhibition of the HPP, intravaginal, Herpes type I [9, 16]: 71%
- % Lesion inhibition of the HPP, transdermal, Herpes type I [9, 16]: 45%
- % Lesion inhibition of the HPP, intravaginal, Herpes type I [9, 17]: 93%
- % Lesion inhibition of the HPP, transdermal, Herpes type I [9, 17]: 72%
- % Lesion inhibition of the HPP, intravaginal, Herpes type I [9, 18]: 95%
- % Lesion inhibition of the HPP, transdermal, Herpes type I [9, 18]: 91%
- % Lesion inhibition of the HPP, intravaginal, Herpes type II [10, 19]: 56%
- % Lesion inhibition of the HPP, transdermal, Herpes type II [10, 19]: 49%
- % Lesion inhibition of the HPP, intravaginal, Herpes type II [10, 20]: 90%
- % Lesion inhibition of the HPP, transdermal, Herpes type II [10, 20]: 80%
- % Lesion inhibition of the HPP, intravaginal, Herpes type II [10, 21]: 96%
- % Lesion inhibition of the HPP, transdermal, Herpes type II [10, 21]: 93%
- % Lesion inhibition of the HPP, intravaginal, Herpes type I [11, 19]: 57%
- % Lesion inhibition of the HPP, transdermal, Herpes type I [11, 19]: 47%
- % Lesion inhibition of the HPP, intravaginal, Herpes type I [11, 20]: 87%
- % Lesion inhibition of the HPP, transdermal, Herpes type I [11, 20]: 77%
- % Lesion inhibition of the HPP, intravaginal, Herpes type I [11, 21]: 95%
- % Lesion inhibition of the HPP, transdermal, Herpes type I [11, 21]: 91%
- % Lesion inhibition of the HPP, intravaginal, Herpes type II [12, 19]: 38%
- % Lesion inhibition of the HPP, transdermal, Herpes type II [12, 19]: 38%
- % Lesion inhibition of the HPP, intravaginal, Herpes type II [12, 20]: 70%
- % Lesion inhibition of the HPP, transdermal, Herpes type II [12, 20]: 58%
- % Lesion inhibition of the HPP, intravaginal, Herpes type II [12, 21]: 90%
- % Lesion inhibition of the HPP, transdermal, Herpes type II [12, 21]: 88%
- % Lesion inhibition of the HPP, intravaginal, Herpes type I [13, 19]: 37%
- % Lesion inhibition of the HPP, transdermal, Herpes type I [13, 19]: 37%
- % Lesion inhibition of the HPP, intravaginal, Herpes type I [13, 20]: 68%
- % Lesion inhibition of the HPP, transdermal, Herpes type I [13, 20]: 57%
- % Lesion inhibition of the HPP, intravaginal, Herpes type I [13, 21]: 88%
- % Lesion inhibition of the HPP, transdermal, Herpes type I [13, 21]: 89%
- Interferon level of the HPP, intravaginal ([14]; 0.5 mg/kg once): 23,647 activity/ml
- Interferon level of the HPP, intravaginal ([14]; 1.5 mg/kg once): 56,735 activity/ml
- Interferon level of the HPP, intravaginal ([14]; 4.5 mg/kg once): 87,795 activity/ml

Compound: sarcosine 1-benzyl-1H-imidazo[4,5-c]quinolin-4-amide hydrochloride
- In vitro Penetration Rate of HPPs (apparent flux) [1]: 0.16 mg/cm^2/h
- signs of irritative effect or discomfort in the skin [2]: None of any signs of irritative effect or discomfort was observed
- Half life of HPPs in plasma [3]: 29 ± 1 min
